Experimental data published in PMC7746945 (Neuro-Oncology, 2020).

Conditions: daily for 42 days, with olaparib 150 mg 3 days/week
From the text: Up to 3 cycles were delivered in the absence of disease progression or unacceptable toxicity. Patients progression free after 3 cycles were eligible for further cycles if approved by sponsor. […] Neurosurgical resection was mandatory in the expansion cohort.
If 2 or more of 6 patients at one dose level experienced a dose limiting toxicity (DLT), this was considered “not tolerated” and designated the maximum administered dose (MAD).

SMILES: Cn1nnc2c(C(N)=O)ncn2c1=O [TMZ, temozolomide]
- MTD / RP2D, TMZ dose: 75 mg/m^2
